Reference: patent US10413581B2, “Combination, composition, and method of administering the combination or composition to animals” (Phibro Animal Health Corporation, priority 2014, dated 2019)

What was measured:
coccidia = test: Example 4: compatibility of the composition with Salinomycin; feed conversion, weight gain, oocysts, coccidial challenge; assay type: in vivo, broilers; conditions: between days 21 and 28; composition 250 ppm, Salinomycin 66 ppm
Method: In this particular embodiment, the compatibility of the Yucca schidigera and Quillaja saponaria composition with Salinomycin was evaluated. The treatments included embodiments where no feed additive was provided (e.g., none of the composition added), where 250 ppm of the composition was provided, where 66 ppm of Salinomycin was provided, and embodiments where 250 ppm of the composition and 66 ppm of Salinomycin were provided in combination. The anticoccidial effects and immune potentiation of each test embodiment were evaluated and the results are provided graphically in FIGS. 20-26.
A challenge study was also conducted to evaluate the potential for immune potentiation. Similar to the challenge study described in Example 3, 5 birds were removed from each pen after 21 days. These birds were challenged with a three-species coccidial challenge and then placed in batter cages for seven days. On day 28, the birds were killed and lesion scored.

E. tenella [1] = test: Example 8: lesion score and OPG, E. tenella; assay type: in vivo, Cobb 500 male chicks; conditions: Composition 250 ppm, Salinomycin 66 ppm, alone or combined
Excerpt: (§1) On Days 18, 28, and 35, three birds per pen were sacrificed and coccidial lesion scored for degree of E. acervulina, E. maxima and E. tenella infection (Examples 6 and 7). The system of Johnson and Reid (1970) wherein 0 is normal and 1, 2, 3, or 4 indicate increasing severity of infection were used for lesion scoring. In Example 8, three birds per pen were sacrificed on days […] and coccidial lesion scored for degree of E. acervulina, E. maxima and E. tenella infection. The system of Johnson and Reid (1970) wherein 0 is normal and 1, 2, 3, or 4 indicate increasing severity of infection were used for lesion scoring.
(§2) On Days 18 and 28 fresh fecal samples were collected from each pen (Examples 6 and 7). On Days 18 and 28, fresh fecal samples were collected from each pen (Example 8). These representative samples were tested to determine the degree of oocysts shedding/cycling. Oocysts per gram were determined for each sample.
(§3) In this example, the ability of exemplary compositions to improve bird performance under challenge conditions was determined. In some embodiments, an exemplary composition was administered alone and in other embodiments, it was administered in combination with Salinomycin. In some embodiments, the birds were not fed any additives (that is, neither the composition nor Salinomycin) and in other embodiments the birds were solely fed Salinomycin. The birds used in this example were exposed to ionophore tolerant coccidia in the litter of all pens, beginning from day of age. […] The results from this example further illustrate that the disclosed compositions and combinations are effective to better control coccidia that are partially resistant to ionophores.

E. tenella [2] = test: Example 5: birds infected with E. tenella field isolate; performance, lesion score, OPG; assay type: in vivo
Excerpt: In another test embodiment, the effects of lower amounts of NFP (e.g., 100 ppm, 125 ppm, and 150 ppm) on birds infected with E. tenella, a species of Eimeria that causes hemorrhagic cecal coccidiosis in poultry, particularly young poultry. Infected birds were infected with 100,000 oocysts of field isolate of E. tenella. The infected birds were subjected to the treatments described below in entries 2-6 of Table 4.

E. acervulina [3] = test: Example 5: birds infected with E. acervulina field isolate; performance, lesion score, OPG; assay type: in vivo
Method: In this particular embodiment, the effects of the composition and Salinomycin, independently, were evaluated. Lower amounts of the composition were tested, including the amount that is typically used by those in the art (i.e., 125 ppm). Salinomycin treatments used 44 ppm or 66 ppm Salinomycin. Non-infected birds that received no medication were used as a control (entry 1 of Table 2, below). Also, some birds were administered 66 ppm of Salinomycin, but where not infected (entry 7 of Table 2, below). The remaining birds were infected with 200,000 oocysts of field isolate of E. acervulina, which is a species of Eimeria that causes coccidiosis in poultry, particularly […] poultry, and subjected to the treatments described below in entries 2-6 of Table 2.

[4] = system: ionophore tolerant coccidia; test: Example 8 floor pen study, ionophore tolerant coccidia in the litter: performance, mortality, total lesion score, total OPG; assay type: in vivo, Cobb 500 male chicks
Excerpt: In the embodiments described below in Examples 6-8, the following conditions and methods were utilized. The test house was divided into pens of equal size, arranged along a central aisle. Subtracting out for equipment, the initial bird density was ˜0.84 square ft/bird. Each pen had 5 feet high side walls with bottom 1½ feet being of solid wood to prevent bird migration. All flooring of each pen had approximately 4 inches of built-up litter.
The temperature of the building was monitored. Environmental conditions during the trial (temperature) were appropriate (optimum) to the age of the animals Illumination was provided by fluorescent bulbs placed above the pens. The lighting scheme was 24 hours of light per day.
The diets were provided ad libitum in one tube-type feeder per pen. From day 1 until day 7, feed will also be supplied on a tray placed directly on the litter of each pen.
Standard floor pen management practices were used throughout the experiment. Animals and housing facilities were inspected twice daily, observing and recording the general health status, constant feed and water supply as well as temperature, removing all dead birds, and recognizing unexpected events.
All feeds were fed as crumbles/pellets. Quantities of all basal feed and test articles used to prepare treatment batches were documented. Each batch of feed was mixed and bagged separately. Each bag was identified with the study number, date of mix, type of feed, and the correct treatment number. Complete records of feed mixing, and test article inventories were maintained. A sample from the beginning, middle, and end of each treatment feed were mixed to form a composite sample. This sample of each treatment was retained until study end. All feed was weighed by pen. Starter feed was fed from Day 0 to 18. On Day 18, non-consumed starter was weighed and discarded. Grower feed was issued and fed until Day 28. On Day 28, non-consumed grower was weighed and discarded. Finisher feed was issued and fed until Day 42. On Day 42, non-consumed finisher was weighed and discarded.
Day of hatch male chicks were obtained from Cobb-Vantress hatchery, Cleveland, Ga. The strain was Cobb 500. Breeder flock was recorded. 1760 chicks were allocated to the study. At the hatchery, the birds received routine vaccinations. The birds were sexed at the hatchery. In Example 7, all chicks were spray vaccinated with conventional doses of Coccivac-B. Only healthy appearing chicks were used in the study. In examples 6 and 7, fifty-five males were allocated to each treatment pen by blocks. In example 8, fifty-two males were allocated to each treatment pen by blocks. No birds were replaced during the course of the study. Number and disposition of all birds not used for allocation were documented. Bird weights (kg) by pen were recorded at study initiation, Day 18, 28, and termination (Day 42).
as §1
On Days 18 and 28 fresh fecal samples were collected from each pen (Examples 6 and 7). […] These representative samples were tested to determine the degree of oocysts shedding/cycling. Oocysts per gram were determined for each sample.
In this example, the ability of exemplary compositions to improve bird performance under challenge conditions was determined. […]

E. maxima [5] = test: Example 8: lesion score and OPG, E. maxima; assay type: in vivo, Cobb 500 male chicks; conditions: Composition 250 ppm, Salinomycin 66 ppm, alone or combined
Excerpt: as §1, §2, §3

E. maxima [6] = test: Example 5: birds infected with E. maxima field isolate; performance, lesion score, OPG; assay type: in vivo
Excerpt: Similar protocols were used to determine the effects of lower amounts of NFP (e.g., 100 ppm, 125 ppm, and 150 ppm) on birds infected with E. maxima, a common form of Eimeria found in commercial broilers. Infected birds were infected with 37,500 oocysts of field isolate of E. maxima. The infected birds were subjected to the treatments described below in entries 2-6 of Table 3.

E. acervulina [7] = test: Example 8: lesion score and OPG, E. acervulina; assay type: in vivo, Cobb 500 male chicks; conditions: Composition 250 ppm, Salinomycin 66 ppm, alone or combined
Excerpt: as §1, §2, §3

[8] = system: coccidial contaminated litter; test: Example 2: live performance of male broiler chickens, coccidial contaminated litter added to pens; assay type: in vivo; conditions: 22 ppm Virginiamycin, throughout the test
Method: In this example, the live performance of male broiler chickens during a standard diet program with and without an embodiment of the disclosed combination was determined. In this embodiment, the combination comprised Virginiamycin and different levels of the composition, particularly 0 ppm, 150 ppm, 200 ppm, and 250 ppm, and further comprising Avatec 90. A disease challenge was presented in each pen by adding coccidial contaminated litter to the pen.

[9] = 44 ppm, birds infected with 100,000 oocysts of E. tenella
[10] = 66 ppm, entry 7 of Table 4 (entries 2-6 infected)
[11] = 44 ppm, birds infected with 200,000 oocysts of E. acervulina
[12] = 66 ppm, entry 7 of Table 2 (not infected)
[13] = Day 18, Composition 250 ppm, Salinomycin 66 ppm, alone or combined
[14] = Day 28, Composition 250 ppm, Salinomycin 66 ppm, alone or combined
[15] = Day 42, Composition 250 ppm, Salinomycin 66 ppm, alone or combined
[16] = 44 ppm, birds infected with 37,500 oocysts of E. maxima
[17] = 66 ppm, entry 7 of Table 3 (entries 2-6 infected)

CC[C@@H](C(=O)[C@@H](C)[C@@H](O)[C@H](C)[C@@H]1O[C@@H]([C@@H](CC)C(=O)O)CC[C@@H]1C)[C@H]1O[C@]2(C=C[C@@H](O)[C@]3(CC[C@@](C)([C@H]4CC[C@](O)(CC)[C@H](C)O4)O3)O2)[C@H](C)C[C@@H]1C [Salinomycin]
susceptibility of broilers to coccidial challenge (coccidia): increased the susceptibility
Lesion Scores E.T. (E. tenella [1]; Day 18): 0.5b
OPG E.T. (E. tenella [1]; Day 21): 5528a oocysts per gram
Lesion Scores E.T. (E. tenella [1]; Day 28): 0.1b
OPG E.T. (E. tenella [1]; Day 28): 3065ab oocysts per gram
Adj. Fd. Conv. (E. tenella [2]; [9]): 1.929 ab
Avg. Wt. Gain (E. tenella [2]; [9]): 0.242 ab
Feed Consum. (E. tenella [2]; [9]): 2.787 a
Lesion Score (E. tenella [2]; [9]): 0.8 c
OPG (E. tenella [2]; [9]): 800 oocysts per gram of fecal material
Adj. Fd. Conv. (E. tenella [2]; [10]): 1.863 bc
Avg. Wt. Gain (E. tenella [2]; [10]): 0.245 ab
Feed Consum. (E. tenella [2]; [10]): 2.671 a
Lesion Score (E. tenella [2]; [10]): 0.6 c
OPG (E. tenella [2]; [10]): 150 oocysts per gram of fecal material
Adj. Fd. Conv. (E. acervulina [3]; [11]): 1.946 b
Avg. Wt. Gain (E. acervulina [3]; [11]): 0.241 ab
Feed Consum. (E. acervulina [3]; [11]): 2.804 a
Lesion Score (E. acervulina [3]; [11]): 1.3 c
OPG (E. acervulina [3]; [11]): 2734 oocysts per gram of fecal material
Adj. Fd. Conv. (E. acervulina [3]; [12]): 1.948 b
Avg. Wt. Gain (E. acervulina [3]; [12]): 0.231 b
Feed Consum. (E. acervulina [3]; [12]): 2.692 ab
Lesion Score (E. acervulina [3]; [12]): 1.4 c
OPG (E. acervulina [3]; [12]): 217 oocysts per gram of fecal material
Adj. FCR [4, 13]: 1.420ab
Feed Intake [4, 13]: 24.76a
Lesion Scores Total [4, 13]: 0.8b
Wt. Gain [4, 13]: 0.294a kg
OPG Total ([4]; Day 21, Composition 250 ppm, Salinomycin 66 ppm, alone or combined): 10352b oocysts per gram
Adj. FCR [4, 14]: 1.619b
Feed Intake [4, 14]: 74.09a
Lesion Scores Total [4, 14]: 0.6b
OPG Total [4, 14]: 7839b oocysts per gram
Wt. Gain [4, 14]: 0.875a kg
Adj. FCR [4, 15]: 1.773bc
Feed Intake [4, 15]: 175.68a
Mortality [4, 15]: 6.5a
Wt. Gain [4, 15]: 2.114a kg
performance ([4]; day 18, Salinomycin alone): did not improve performance
Lesion Scores E.M. (E. maxima [5]; Day 18): 0.7a
OPG E.M. (E. maxima [5]; Day 21): 1910bc oocysts per gram
Lesion Scores E.M. (E. maxima [5]; Day 28): 0.5b
OPG E.M. (E. maxima [5]; Day 28): 955b oocysts per gram
Adj. Fd. Conv. (E. maxima [6]; [16]): 2.021 b
Avg. Wt. Gain (E. maxima [6]; [16]): 0.225 b
Feed Consum. (E. maxima [6]; [16]): 2.718 ab
Lesion Score (E. maxima [6]; [16]): 1.3 cd
OPG (E. maxima [6]; [16]): 4435 oocysts per gram of fecal material
Adj. Fd. Conv. (E. maxima [6]; [17]): 1.960 b
Avg. Wt. Gain (E. maxima [6]; [17]): 0.230 b
Feed Consum. (E. maxima [6]; [17]): 2.647 bc
Lesion Score (E. maxima [6]; [17]): 1.2 days
OPG (E. maxima [6]; [17]): 167 oocysts per gram of fecal material
Lesion Scores E.A. (E. acervulina [7]; Day 18): 1.3a
OPG E.A. (E. acervulina [7]; Day 21): 2915bc oocysts per gram
Lesion Scores E.A. (E. acervulina [7]; Day 28): 1.2ab
OPG E.A. (E. acervulina [7]; Day 28): 3819b oocysts per gram

Virginiamycin
feed conversion rates [8]: improved feed conversion rates
